The results in this text go back to ChEMBL document CHEMBL3991601, “The target landscape of clinical kinase drugs” (Science, 2017).

Calls of active or inactive are those of the source.

Assay [1] concerns the target T1, Rab-like protein 3 (Homo sapiens, UniProt Q5HYI8).
T1 sequence (Q5HYI8 whole entry): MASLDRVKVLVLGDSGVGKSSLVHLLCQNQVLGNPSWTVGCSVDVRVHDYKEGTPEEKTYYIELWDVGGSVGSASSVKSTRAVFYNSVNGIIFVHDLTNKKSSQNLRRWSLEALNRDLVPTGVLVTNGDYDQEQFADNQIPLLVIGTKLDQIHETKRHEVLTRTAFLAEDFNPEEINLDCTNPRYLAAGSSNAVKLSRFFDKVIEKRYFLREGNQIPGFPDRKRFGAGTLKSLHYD

The target of assay [2] is T2, Dual specificity mitogen-activated protein kinase kinase 5 (Homo sapiens, UniProt Q13163).
T2 sequence (Q13163 whole entry): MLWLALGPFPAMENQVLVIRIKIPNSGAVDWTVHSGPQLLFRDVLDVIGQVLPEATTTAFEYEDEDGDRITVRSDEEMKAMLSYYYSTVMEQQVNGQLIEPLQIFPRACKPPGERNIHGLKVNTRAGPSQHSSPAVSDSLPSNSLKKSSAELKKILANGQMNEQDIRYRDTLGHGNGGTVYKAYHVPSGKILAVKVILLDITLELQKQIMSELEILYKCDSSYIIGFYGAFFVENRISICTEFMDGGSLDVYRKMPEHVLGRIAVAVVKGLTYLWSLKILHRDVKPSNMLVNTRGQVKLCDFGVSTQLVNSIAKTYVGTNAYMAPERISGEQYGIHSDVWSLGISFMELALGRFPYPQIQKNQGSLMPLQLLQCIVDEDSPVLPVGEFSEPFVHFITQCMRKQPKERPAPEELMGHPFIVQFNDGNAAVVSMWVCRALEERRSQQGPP

The target of assay [3] is T3, Dynamin-like GTPase OPA1, mitochondrial (Homo sapiens, UniProt O60313).
T3 sequence (O60313 whole entry): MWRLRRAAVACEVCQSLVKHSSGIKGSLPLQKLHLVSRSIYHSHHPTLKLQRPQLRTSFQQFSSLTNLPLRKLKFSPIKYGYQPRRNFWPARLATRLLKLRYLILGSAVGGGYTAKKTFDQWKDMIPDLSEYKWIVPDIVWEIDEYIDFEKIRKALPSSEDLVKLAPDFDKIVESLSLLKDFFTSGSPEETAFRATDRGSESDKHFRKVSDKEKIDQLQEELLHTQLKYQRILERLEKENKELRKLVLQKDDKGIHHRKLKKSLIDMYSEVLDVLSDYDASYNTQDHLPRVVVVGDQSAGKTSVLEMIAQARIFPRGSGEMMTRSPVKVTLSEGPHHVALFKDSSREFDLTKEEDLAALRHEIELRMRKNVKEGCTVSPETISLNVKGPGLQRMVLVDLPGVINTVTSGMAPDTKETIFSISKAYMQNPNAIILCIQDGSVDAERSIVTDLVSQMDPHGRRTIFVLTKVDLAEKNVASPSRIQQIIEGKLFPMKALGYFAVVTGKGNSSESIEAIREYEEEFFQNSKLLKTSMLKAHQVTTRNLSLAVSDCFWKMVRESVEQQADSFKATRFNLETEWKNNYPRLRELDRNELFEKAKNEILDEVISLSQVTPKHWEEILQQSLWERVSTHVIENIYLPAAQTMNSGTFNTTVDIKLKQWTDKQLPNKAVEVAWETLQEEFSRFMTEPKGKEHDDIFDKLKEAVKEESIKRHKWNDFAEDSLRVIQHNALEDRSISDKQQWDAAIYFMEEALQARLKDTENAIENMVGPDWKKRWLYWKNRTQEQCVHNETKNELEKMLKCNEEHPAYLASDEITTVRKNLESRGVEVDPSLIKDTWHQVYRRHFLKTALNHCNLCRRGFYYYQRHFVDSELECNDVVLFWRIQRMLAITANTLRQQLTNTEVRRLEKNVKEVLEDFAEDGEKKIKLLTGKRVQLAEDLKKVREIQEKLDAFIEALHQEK

Assay [4] addresses cAMP-dependent protein kinase catalytic subunit alpha (Homo sapiens, UniProt P17612).
The target of assay [5] is Activin receptor type-2B (Homo sapiens, UniProt Q13705).
The target in assay [6] is Ribosomal protein S6 kinase beta-1 (Homo sapiens, UniProt P23443).
For assay [7], the target named is Mitogen-activated protein kinase 1 (Homo sapiens, UniProt P28482).
Assay [8] addresses U5 small nuclear ribonucleoprotein 200 kDa helicase (Homo sapiens, UniProt O75643).
For assay [9], the target named is Eukaryotic translation initiation factor 2-alpha kinase 1 (Homo sapiens, UniProt Q9BQI3).
The target in assay [10] is T4, Mitogen-activated protein kinase kinase kinase kinase 2 (Homo sapiens, UniProt Q12851).
T4 sequence (Q12851 whole entry): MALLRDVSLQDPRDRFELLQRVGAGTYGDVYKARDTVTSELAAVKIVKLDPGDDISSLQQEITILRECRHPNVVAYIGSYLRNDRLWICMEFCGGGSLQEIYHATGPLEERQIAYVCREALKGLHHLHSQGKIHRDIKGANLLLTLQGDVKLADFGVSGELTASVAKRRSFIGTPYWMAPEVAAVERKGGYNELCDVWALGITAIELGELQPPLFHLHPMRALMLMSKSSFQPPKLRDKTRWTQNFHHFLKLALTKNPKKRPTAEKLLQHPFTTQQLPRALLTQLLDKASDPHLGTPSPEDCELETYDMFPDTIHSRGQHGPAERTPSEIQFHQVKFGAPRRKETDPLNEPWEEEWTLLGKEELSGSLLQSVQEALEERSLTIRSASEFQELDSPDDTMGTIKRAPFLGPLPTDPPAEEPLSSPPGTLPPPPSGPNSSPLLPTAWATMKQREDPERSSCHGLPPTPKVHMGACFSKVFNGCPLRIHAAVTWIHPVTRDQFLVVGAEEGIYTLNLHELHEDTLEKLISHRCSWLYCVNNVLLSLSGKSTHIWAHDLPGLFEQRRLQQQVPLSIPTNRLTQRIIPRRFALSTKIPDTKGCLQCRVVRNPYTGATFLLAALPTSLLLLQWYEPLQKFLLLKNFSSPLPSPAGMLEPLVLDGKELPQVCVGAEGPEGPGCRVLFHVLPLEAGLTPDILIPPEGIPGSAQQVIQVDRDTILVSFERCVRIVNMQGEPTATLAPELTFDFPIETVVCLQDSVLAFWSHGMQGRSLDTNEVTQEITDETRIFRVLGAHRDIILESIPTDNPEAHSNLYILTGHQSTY
Further: in the data inactive means no Kd found up to 30 µM.

Mitogen-activated protein kinase 1, sequence (P28482 whole entry): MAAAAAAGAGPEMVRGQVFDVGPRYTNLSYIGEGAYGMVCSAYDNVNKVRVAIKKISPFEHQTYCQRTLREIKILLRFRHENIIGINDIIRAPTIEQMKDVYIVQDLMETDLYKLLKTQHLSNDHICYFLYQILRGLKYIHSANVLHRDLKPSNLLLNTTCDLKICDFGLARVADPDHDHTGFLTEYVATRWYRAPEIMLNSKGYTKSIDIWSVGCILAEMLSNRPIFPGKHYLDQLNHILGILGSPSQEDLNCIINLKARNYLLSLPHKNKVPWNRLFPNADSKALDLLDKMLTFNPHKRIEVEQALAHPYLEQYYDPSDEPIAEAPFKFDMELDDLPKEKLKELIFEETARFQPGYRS
Ribosomal protein S6 kinase beta-1, sequence (P23443 whole entry): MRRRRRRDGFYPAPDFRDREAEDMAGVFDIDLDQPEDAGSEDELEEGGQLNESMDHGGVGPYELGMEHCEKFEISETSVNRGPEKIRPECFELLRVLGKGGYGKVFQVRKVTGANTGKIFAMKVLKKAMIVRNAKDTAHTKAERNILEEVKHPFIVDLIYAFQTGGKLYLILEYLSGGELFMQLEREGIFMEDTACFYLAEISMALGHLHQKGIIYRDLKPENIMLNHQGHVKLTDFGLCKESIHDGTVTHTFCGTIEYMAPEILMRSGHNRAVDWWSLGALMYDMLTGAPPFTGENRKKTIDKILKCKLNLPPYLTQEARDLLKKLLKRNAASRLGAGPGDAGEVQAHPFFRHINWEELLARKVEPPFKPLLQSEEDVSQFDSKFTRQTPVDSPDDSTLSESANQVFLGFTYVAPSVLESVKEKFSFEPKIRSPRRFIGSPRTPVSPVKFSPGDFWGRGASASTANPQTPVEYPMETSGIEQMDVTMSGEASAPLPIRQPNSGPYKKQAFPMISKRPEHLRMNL
U5 small nuclear ribonucleoprotein 200 kDa helicase, sequence (O75643 whole entry): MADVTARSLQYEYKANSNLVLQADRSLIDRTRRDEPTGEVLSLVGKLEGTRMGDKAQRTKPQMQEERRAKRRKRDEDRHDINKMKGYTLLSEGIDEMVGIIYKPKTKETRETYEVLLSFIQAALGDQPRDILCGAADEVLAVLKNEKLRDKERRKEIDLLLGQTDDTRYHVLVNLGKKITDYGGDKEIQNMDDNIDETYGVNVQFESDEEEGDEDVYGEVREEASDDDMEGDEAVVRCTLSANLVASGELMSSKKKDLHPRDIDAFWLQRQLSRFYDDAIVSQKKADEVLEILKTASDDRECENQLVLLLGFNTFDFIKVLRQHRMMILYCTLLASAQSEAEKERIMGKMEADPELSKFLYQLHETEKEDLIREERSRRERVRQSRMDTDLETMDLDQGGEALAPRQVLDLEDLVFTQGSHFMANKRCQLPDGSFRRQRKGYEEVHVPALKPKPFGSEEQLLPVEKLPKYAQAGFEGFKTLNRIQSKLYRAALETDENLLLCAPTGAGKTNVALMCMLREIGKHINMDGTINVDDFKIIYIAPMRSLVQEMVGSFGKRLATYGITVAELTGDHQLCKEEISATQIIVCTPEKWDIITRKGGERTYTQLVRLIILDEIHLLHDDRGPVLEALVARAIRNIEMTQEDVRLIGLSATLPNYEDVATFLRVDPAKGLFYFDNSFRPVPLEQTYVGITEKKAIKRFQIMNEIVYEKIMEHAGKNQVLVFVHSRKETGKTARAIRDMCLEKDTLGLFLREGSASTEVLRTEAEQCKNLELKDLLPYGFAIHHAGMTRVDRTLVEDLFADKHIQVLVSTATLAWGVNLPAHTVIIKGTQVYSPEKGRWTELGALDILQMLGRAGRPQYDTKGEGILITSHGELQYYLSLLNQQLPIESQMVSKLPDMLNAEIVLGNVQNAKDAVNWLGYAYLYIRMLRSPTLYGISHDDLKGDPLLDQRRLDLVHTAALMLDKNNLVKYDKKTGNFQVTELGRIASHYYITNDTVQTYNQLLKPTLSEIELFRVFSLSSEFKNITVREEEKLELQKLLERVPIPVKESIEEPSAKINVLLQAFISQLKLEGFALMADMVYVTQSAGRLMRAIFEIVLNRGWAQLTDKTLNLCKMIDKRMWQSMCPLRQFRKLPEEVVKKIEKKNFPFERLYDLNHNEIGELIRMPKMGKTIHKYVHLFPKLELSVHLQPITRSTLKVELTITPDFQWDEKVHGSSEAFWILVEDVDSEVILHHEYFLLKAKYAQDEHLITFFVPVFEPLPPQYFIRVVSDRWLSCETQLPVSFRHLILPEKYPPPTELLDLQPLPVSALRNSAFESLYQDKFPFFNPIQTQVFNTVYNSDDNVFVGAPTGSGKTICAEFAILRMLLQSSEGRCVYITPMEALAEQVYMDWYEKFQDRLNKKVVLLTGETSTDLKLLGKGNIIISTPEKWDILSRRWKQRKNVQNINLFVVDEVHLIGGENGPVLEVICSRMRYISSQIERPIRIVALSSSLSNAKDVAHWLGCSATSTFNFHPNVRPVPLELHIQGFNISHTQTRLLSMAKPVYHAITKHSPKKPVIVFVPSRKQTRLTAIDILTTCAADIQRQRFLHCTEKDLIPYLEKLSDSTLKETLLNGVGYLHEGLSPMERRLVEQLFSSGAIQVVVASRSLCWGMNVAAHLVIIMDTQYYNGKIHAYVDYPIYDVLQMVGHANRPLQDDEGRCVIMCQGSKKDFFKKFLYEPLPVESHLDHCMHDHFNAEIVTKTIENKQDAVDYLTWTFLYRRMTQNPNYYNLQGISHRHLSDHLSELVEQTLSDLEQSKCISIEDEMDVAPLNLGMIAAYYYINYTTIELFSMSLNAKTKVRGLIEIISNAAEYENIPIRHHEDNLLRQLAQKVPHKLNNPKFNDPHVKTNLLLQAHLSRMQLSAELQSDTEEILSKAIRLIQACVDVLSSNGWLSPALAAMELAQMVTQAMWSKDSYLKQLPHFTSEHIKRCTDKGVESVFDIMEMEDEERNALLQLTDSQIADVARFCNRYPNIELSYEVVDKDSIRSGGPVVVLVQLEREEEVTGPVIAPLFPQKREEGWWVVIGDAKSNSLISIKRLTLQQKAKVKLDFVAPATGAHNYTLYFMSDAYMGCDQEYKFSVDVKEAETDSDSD
Activin receptor type-2B, sequence (Q13705 whole entry): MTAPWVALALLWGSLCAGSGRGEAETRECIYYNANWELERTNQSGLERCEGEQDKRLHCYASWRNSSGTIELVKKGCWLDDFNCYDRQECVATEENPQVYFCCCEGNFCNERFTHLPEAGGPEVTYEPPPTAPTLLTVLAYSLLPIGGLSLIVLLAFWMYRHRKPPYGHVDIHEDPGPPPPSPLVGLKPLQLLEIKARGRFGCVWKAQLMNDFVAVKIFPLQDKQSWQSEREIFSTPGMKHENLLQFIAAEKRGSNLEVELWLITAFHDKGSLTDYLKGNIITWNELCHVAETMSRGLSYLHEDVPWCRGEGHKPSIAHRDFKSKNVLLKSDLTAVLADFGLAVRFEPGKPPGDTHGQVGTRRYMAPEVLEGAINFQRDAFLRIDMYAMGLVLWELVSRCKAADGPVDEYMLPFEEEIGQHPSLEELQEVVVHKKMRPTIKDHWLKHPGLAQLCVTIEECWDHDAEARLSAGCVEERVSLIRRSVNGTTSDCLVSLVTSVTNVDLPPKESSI
Eukaryotic translation initiation factor 2-alpha kinase 1, sequence (Q9BQI3 whole entry): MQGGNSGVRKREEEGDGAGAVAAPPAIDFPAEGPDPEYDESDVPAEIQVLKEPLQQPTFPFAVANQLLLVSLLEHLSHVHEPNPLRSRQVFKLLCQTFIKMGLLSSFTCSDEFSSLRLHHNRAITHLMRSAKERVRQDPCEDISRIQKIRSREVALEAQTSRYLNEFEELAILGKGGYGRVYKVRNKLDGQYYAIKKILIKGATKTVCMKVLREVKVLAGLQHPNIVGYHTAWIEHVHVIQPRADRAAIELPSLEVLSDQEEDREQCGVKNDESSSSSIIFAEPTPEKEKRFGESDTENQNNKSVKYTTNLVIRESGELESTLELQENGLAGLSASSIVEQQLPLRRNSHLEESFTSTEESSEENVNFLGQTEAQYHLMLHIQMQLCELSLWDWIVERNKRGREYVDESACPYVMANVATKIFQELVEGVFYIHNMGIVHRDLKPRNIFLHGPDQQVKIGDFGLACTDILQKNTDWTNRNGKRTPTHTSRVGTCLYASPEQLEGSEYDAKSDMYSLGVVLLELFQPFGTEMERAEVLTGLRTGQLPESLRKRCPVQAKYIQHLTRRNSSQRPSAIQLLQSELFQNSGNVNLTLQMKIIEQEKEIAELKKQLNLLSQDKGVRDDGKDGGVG

Take `COCCNCc1ccc(-c2cc3nccc(Oc4ccc(NC(=S)NC(=O)Cc5ccc(F)cc5)cc4F)c3s2)nc1` [GLESATINIB]: the Kd in assay [1], in assay [2], in assay [3], in assay [4], in [5] and in assay [6] was > 30 µM (inactive) in each case. The Kd in assay [7], in assay [8], in [9] and in assay [10] was > 30 µM (inactive) each time.

Turning to `COC(=O)[C@@]1(O)C[C@H]2O[C@]1(C)n1c3ccccc3c3c4c(c5c6ccccc6n2c5c31)C(=O)NC4` [K-252A], the Kd was > 30 µM (inactive) in assay [1]; 2.03 µM (active) in [2]; > 30 µM (inactive) in assay [3]; > 30 µM (inactive) in assay [4]; > 30 µM (inactive) in assay [5]; > 30 µM (inactive) in assay [6]. Further, the Kd in assay [7] is > 30 µM (inactive); in assay [8], > 30 µM (inactive); in assay [9], > 30 µM (inactive); in [10], 0.131 µM (active).

With `Cn1cc(-c2ccc3nnc(C(F)(F)c4ccc5ncccc5c4)n3n2)cn1` [JNJ-38877605], the Kd in assay [1], in [2], in assay [3], in assay [4], in assay [5] and in assay [6] was > 30 µM (inactive) each time. In addition, the Kd in [7], in [8], in assay [9] and in [10] was > 30 µM (inactive) each time.

With `Cc1cc([C@@H](C)Nc2ccccc2C(=O)O)c2nc(N3CCOCC3)cc(=O)n2c1` [AZD-6482], the Kd in assay [1], in assay [2], in assay [3], in [4], in [5] and in assay [6] was > 30 µM (inactive) each time. Besides, the Kd in assay [7], in [8], in assay [9] and in assay [10] was > 30 µM (inactive) each time.

Take `COc1cc(CCc2cc(NC(=O)c3ccc(N4C[C@@H](C)N[C@@H](C)C4)cc3)n[nH]2)cc(OC)c1` [AZD-4547]: the Kd in assay [1], in [2], in assay [3], in assay [4], in assay [5] and in [6] was > 30 µM (inactive) throughout. The Kd in assay [7] was > 30 µM (inactive); in [8] it was > 30 µM (inactive); in assay [9], 0.17 µM (active); in assay [10], 0.11 µM (active).

As for `CNC(=O)c1ccc(-c2cnc3ncc(Cc4ccc5ncccc5c4)n3n2)cc1F` [CAPMATINIB], the Kd in assay [1], in assay [2], in assay [3], in assay [4], in assay [5] and in assay [6] was > 30 µM (inactive) each time. Also, the Kd in assay [7], in assay [8], in assay [9] and in [10] was > 30 µM (inactive) throughout.

As to `CN1CC[C@@H](c2c(O)cc(O)c3c(=O)cc(-c4ccccc4Cl)oc23)[C@@H]1CO`, the Kd in assay [1], in [2], in assay [3], in [4], in assay [5] and in [6] was > 30 µM (inactive) throughout. Moreover, the Kd in assay [7], in assay [8], in assay [9] and in assay [10] was > 30 µM (inactive) in each case.

On to `N[C@@H]1CCCN(c2c(/C=C3\SC(=O)NC3=O)cccc2-c2ccccc2)C1`, for which the Kd in assay [1], in assay [2], in assay [3], in [4], in assay [5] and in assay [6] was > 30 µM (inactive) each time. For the same compound, the Kd in assay [7], in assay [8], in assay [9] and in [10] was > 30 µM (inactive) each time.

On to `CCN1CCN(Cc2ccc(-c3cc4c(N[C@H](C)c5ccccc5)ncnc4[nH]3)cc2)CC1` [AEE-788], for which the Kd in assay [1] is > 30 µM (inactive); in assay [2] it was 9.43 µM (active); in assay [3] it was > 30 µM (inactive); in [4] it was > 30 µM (inactive); in assay [5] it was > 30 µM (inactive); in assay [6], > 30 µM (inactive). Also, the Kd in assay [7] is > 30 µM (inactive); in assay [8] it was > 30 µM (inactive); in assay [9], > 30 µM (inactive); in assay [10], 3.53 µM (active).

Turning to `C[C@@H]1CN(Cc2ccc(F)cc2)[C@@H](C)CN1C(=O)c1cc2c(C(=O)C(=O)N(C)C)cn(C)c2cc1Cl` [TALMAPIMOD], the Kd in assay [1], in assay [2], in assay [3], in assay [4], in assay [5] and in [6] was > 30 µM (inactive) in each case. The Kd in assay [7], in assay [8], in [9] and in [10] was > 30 µM (inactive) each time.

The term Kd denotes a measure of binding affinity in units of concentration.
